According to patent publication US8158088B2, “Extractant compositions for co-extracting cesium and strontium, a method of separating cesium and strontium from an aqueous feed, and calixarene compounds” (Battelle Energy Alliance, LLC, priority 2008, dated 2012):

Experiment: Strontium distribution ratio (DSr), equilibrium batch contact of mixed extractant solvent with nitric acid feed
Type: physicochemical

CCCCCCCCOc1c2cccc1Cc1cccc3c1OCCOCCOc1ccccc1OCCOCCOc1c(cccc1Cc1cccc(c1OCCCCCCCC)C3)C2 [MC-8, 1,3-alternate-25,27-di(octyloxy)calix[4]arenebenzocrown-6]
DSr (0.010 M MC-8, contact E1, 1.5 M HNO3, 0.075 M DtBuCH18C6, 0.75 M Cs-7SB, 0.003 M TOA in ISOPAR L): 8.9
DSr (0.015 M MC-8, contact E1, 1.5 M HNO3): 7.2
DSr (0.020 M MC-8, contact E1, 1.5 M HNO3): 9.4
DSr (0.025 M MC-8, contact E1, 1.5 M HNO3): 9.1
DSr (1.0 M HNO3, 20 °C, contact E1, 0.025 M MC-8, 0.075 M DtBuCH18C6, 0.75 M Cs-7SB, 0.003 M TOA in ISOPAR L): 7.4
DSr (1.5 M HNO3, 20 °C, contact E1, 0.025 M MC-8): 12.4
DSr (2.0 M HNO3, 20 °C, contact E1, 0.025 M MC-8): 16.2
DSr (3.0 M HNO3, 20 °C, contact E1, 0.025 M MC-8): 3rd phase
DSr (4.0 M HNO3, 20 °C, contact E1, 0.025 M MC-8): 3rd phase
DSr (15 °C, contact E1, 1.0 M HNO3 feed, 0.025 M MC-8, 0.075 M DtBuCH18C6, 0.75 M Cs-7SB, 0.003 M TOA in ISOPAR L): 9.0
DSr (20 °C, contact E1, 1.0 M HNO3 feed, 0.025 M MC-8): 6.0
DSr (25 °C, contact E1, 1.0 M HNO3 feed, 0.025 M MC-8): 4.6
DSr (30 °C, contact E1, 1.0 M HNO3 feed, 0.025 M MC-8): 3.4
DSr (35 °C, contact E1, 1.0 M HNO3 feed, 0.025 M MC-8): 2.5
DSr (contact E1, batch contact flowsheet, simulated feed 1.0 M HNO3, 0.025 M MC-8): 7.1
DSr (contact E2, simulated feed 1.0 M HNO3, 0.025 M MC-8): 6.2
DSr (contact E3, simulated feed 1.0 M HNO3, 0.025 M MC-8): 6.2
DSr (contact St1 (strip), 0.025 M MC-8): 0.022
DSr (contact St2 (strip), 0.025 M MC-8): 0.006
Strontium distribution ratio, contact E1 (first forward extraction, 1.5 M HNO3 feed simulant, 25 °C, 0.007 M calixarene, 0.075 M DtBuCH18C6, 0.75 M Cs-7SB, 0.003 M TOA in ISOPAR L): 10.5
Strontium distribution ratio, contact St1 (first strip with 0.01 M HNO3, 35 °C, 0.007 M calixarene solvent): 0.06
Strontium distribution ratio, contact E2 (second forward extraction, 1.5 M HNO3 feed, 25 °C, 0.007 M calixarene solvent): 8.6
Strontium distribution ratio, contact St2 (second strip with 0.01 M HNO3, 35 °C, 0.007 M calixarene solvent): 0.01
Strontium distribution ratio, contact E3 (third forward extraction, 1.5 M HNO3 feed, 25 °C, 0.007 M calixarene solvent): 8.5
